Experimental data from US4673670A, “N^6 -acenaphthyl adenosines and analogs thereof” (Warner-Lambert Company, priority 1986, dated 1987).

System: conscious rat
Test: Antihypertensive evaluation (AHP3): aortic blood pressure and heart rate from conscious rats
Assay type: in vivo
Conditions: hour 1
Description: This test procedure is described in the following paragraphs.
A Method for the Direct Monitoring of Aortic Blood Pressure and Heart Rate from Conscious Rats
The continuous monitoring of pulsatile blood pressure (BP) from unrestrained conscious rats surgically equipped with polyethylene cannulas was accomplished by means of a computer assisted data capture scheme (CADCS). The basic elements of the methodology are the cannulation procedure and the CADCS.
Cannulation Procedure: Rats were anesthetized with Telazol (1:1 tiletamine HCl and zolazepam HCl); 20-40 mg/kg IM and the descending aorta exposed via a midline incision. Cannulas fabricated from polyethylene tubing were inserted into the aorta via an undersized puncture hole below the renal arteries. The puncture hole was made by a 23 G disposable needle with a section of the aorta clamped off above and below the puncture site. The cannulas, consisting of a PE100 (0.86 mm ID) body and a PE50 (0.58 mm ID) tip, were attached to a trocar, inserted through the psoas muscle, and passed subcutaneously along the midline of the back and externalized between the ears. […]
CADCS: The pulsatile blood pressure and heart rate of each of 32 rats was monitored every minute by means of two in-laboratory microcomputers communicating directly with a data concentrator computer. […]

Compound	HR (heart rate) increase (10 mg/kg, ↑ = increase) [%]	MAP (mean arterial pressure) decrease (30 mg/kg, ↓ = decrease) [%]
OC[C@H]1O[C@@H](n2cnc3c(NCC4=Cc5cccc6cccc4c56)ncnc32)[C@H](O)[C@@H]1O [Example 2, N^6-(1-acenaphthylenylmethyl)adenosine]	0	–
OC[C@H]1O[C@@H](n2cnc3c(NC4Cc5cccc6cccc4c56)ncnc32)[C@H](O)[C@@H]1O (some centres unmarked) [Example 1, N^6 -Acenaphthyladenosine]	–	30
